Laboratory results taken from patent US20210121482A1, “WITHANOLIDES FOR THE TREATMENT OF CACHEXIA” (University of Louisville Research Foundation, Inc., priority 2019, published 2021).

Columns and labels:
[1] = system: inflammatory cytokines and NLRP3 inflammasome markers in TA muscle; assay: qPCR of TA muscle; type: in vivo, Mus musculus
Procedure: (§1) Total RNA Extraction and qPCR: Isolation of total RNA from xenografted tumor samples was performed using an RNeasy® Mini Kit (Qiagen Catalog #74104) according to the manufacturer's instructions. Isolation of total RNA from skeletal muscle was performed using an RNeasy® Fibrous Tissue Mini Kit (Qiagen Catalog #74704) according to the manufacturer's instructions. First strand cDNA was synthesized using 1 μg of purified RNA and a commercially available kit (iScript™ cDNA synthesis, Bio-Rad Catalog #170-8891), Quantification of mRNA expression was performed similar to as previously described (Hindi and Kumar, 2016) using the SYBR Green dye method on a StepOnePlus™ system (Applied Biosystems) using gene-specific primers, as shown in Table 1.

[2] = system: inflammatory cytokines and NLRP3 inflammasome markers in tumor samples; assay: qPCR of xenografted tumor samples; type: in vivo, Homo sapiens
Procedure: as §1

[3] = system: gonadal fat pad; assay: Qualitative assessment of gonadal fat; type: in vivo, mice
Source text: Ovarian cancer progression is often associated with the specific loss of the gonadal fat pad. Thus, an attempt was made to quantify the amount of adipose tissue present in the gonadal region at the time of tissue collection post-euthanization. The severe reduction in the gonadal fat pad rendered accurate measurement of gonadal adipose tissue improbable. Further, in some mice, there was a complete absence of gonadal fat.
1. When the ovaries were embedded in adipose tissue and not readily identifiable without dissection through the fat pad, the mouse was scored “Abundant”. All mice in the control group were deemed to have an abundant amount of gonadal fat, whereas the vehicle treated group had no gonadal fat present, consistent with published reports linking specific changes in the gonadal fat pad to the progression of ovarian cancer.
2. When adipose tissue was present but in such a scant quantity that we could not accurately quantify the mass, the amount of gonadal fat was marked as “Small Amount”.

[4] = Body and organ weight, A2780 xenograft mice (Example 1); settings: for BW Week 2 / BW Week 3 / BW Week 1 / Initial BW / Kidney weight normalized / Liver weight normalized / Spleen weight normalized: tumor-bearing; for Initial BW: baseline, before treatment
[5] = system: ovarian cancer-induced cachexia; assay: Grip strength, tumor-free and tumor-bearing mice (Example 2); type: in vivo; settings: terminal week
Procedure: Grip Strength Measurements: Before assessment, mice were weighed on a commercially available digital scale. Forepaw and total grip strength of mice were measured using a digital grip strength meter (Columbus Instruments, Columbus, Ohio, USA) and then normalized by total body weight. Before the beginning of the test, the mice were acclimatized for five minutes. The mouse was allowed to grasp the total paw pull-bar assembly, and in a separate experiment the forepaw pull-bar assembly. The mouse was then gently drawn with constant force in a straight line away from the device until the mouse could no longer grasp the bar. Force at time of release was recorded as the peak tension. Each mouse was tested five times with a delay of 20-40 seconds between each testing. The mean peak tension was calculated from the recordings normalized by total body weight.
Grip Strength Measurements: as in Example 1.

[6] = system: left ventricular systolic and diastolic function; assay: Echocardiography; type: in vivo, mice
Procedure: Left ventricular (LV) systolic and diastolic function were evaluated by transthoracic echocardiography using a Vevo 3100 system and a 40 MHz linear probe (FUJIFILM VisualSonics Inc., Toronto, Ontario, Canada). Mice were anesthetized with isoflurane, maintained at an equivalent surgical depth of anesthesia (induction chamber at 5% with 1.5-2.0 L/min 02 flow, followed by 1.5-2.0% with 1.5-2.0 L/min 02 flow), and placed in the supine position. The skin over the thorax was shaved and then briefly subjected to a depilatory cream. Body temperature was maintained at 37-38° C., and heart rate was monitored using the accompanying Vevo Imaging Station. Briefly, variables that represent diastolic function (E/A ratio, isovolumetric relaxation time (IVRT), and (E/e′) were measured during the resting condition from an apical four-chamber view with conventional pulsed wave tissue Doppler. The E/A ratio was calculated from the peak velocity flow in early diastole (the E wave) to the peak velocity flow in late diastole caused by atrial contraction (the A wave) during resting conditions.
An image was captured along the parasternal short axis and analyzed offline using the Vevo® Lab software. Standard measures of LV structure [i.e., LV internal diameter (LVID) and LV posterior wall thickness (PWT)] and function [i.e., stroke volume (SV), cardiac output (CO), and ejection fraction (EF)] were obtained along the parasternal short axis during resting and stress conditions. In M-mode, wall thickness and chamber dimensions across the sample line were used to calculate anatomical and functional parameters. End-diastolic and end-systolic volumes were estimated from LVID […]. Results from five cardiac cycles during expiration were averaged together and used for between-group and within-group comparisons. Continuous ECG and heart rate monitoring were performed over a period of one hour while the other measurements were collected.

[7] = system: A2780 ovarian cancer xenograft; settings: mouse, in vivo
Procedure: Tumor-bearing groups received an IP injection of 1.0×10^6 low passage A2780 cells suspended in 100 μl sterile PBS.
Graphical Display and Statistical Analyses: The majority of the results were expressed as box-and-whisker plots with the box comprised of the first, second, and third quartiles, and the lower and upper whiskers corresponding to the minimum and maximum values, respectively, to display the entire range of data. A Kaplan-Meier curve was used for the survival analysis. Statistical analysis of the data was performed using one-way analysis of variance (ANOVA) followed by Tukey's Honestly Significant Difference Test (HSDT) post hoc analysis or the Mantel-Cox log-rank test to determine statistically significant differences between groups with GraphPad Prism 8.0.1 software for Mac (La Jolla, Calif., USA). A value of P<0.05 was considered statistically significant, unless otherwise specified.

[8] = 2 mg/kg, vs vehicle treated group
[9] = 6 mg/kg, vs vehicle treated group
[10] = 2 and 6 mg/kg, vs vehicle treated group
[11] = WFA 2 mg/kg IP every three days
[12] = WFA 6 mg/kg IP every three days
[13] = tumor-bearing, 2 and 4 mg/kg, vs tumor-bearing vehicle

Q: Which “relative mRNA levels of TNFα, IFNγ, IL-6, MIP-2 in TA muscle” value [1, 8] does the source give for `CC1=C(CO)C(=O)O[C@@H]([C@@H](C)[C@H]2CC[C@H]3[C@@H]4C[C@H]5O[C@]56[C@@H](O)C=CC(=O)[C@]6(C)[C@H]4CC[C@]23C)C1` [WFA, (4β,5β,6β,22R)-4,27-Dihydroxy-5,6:22,26-diepoxyergosta-2,24-diene-1,26-dione] here?
A: significantly reduced

Q: What about the “transcript levels of HO-1 in TA muscle” value [1, 8] of the same compound?
A: increased compared to the vehicle treated group

Q: What about the “transcript levels of NLRP3, CASP1, IL-1β, IL-18 in TA muscle” value [1, 8] of the same compound?
A: significant reduction in all tested NLRP3 inflammasome transcript levels

Q: And the “relative mRNA levels of TNFα, IFNγ, IL-6, MIP-2 in TA muscle” value ([1]; 6 mg/kg, vs control and WFA 2 mg/kg groups)?
A: robust increase in the expression of select proinflammatory cytokines

Q: What about the “transcript levels of CASP1 and IL-1β in TA muscle” value ([1]; 6 mg/kg, vs control group) of the same compound?
A: significantly increased

Q: What about the “transcript levels of HO-1 in TA muscle” value ([1]; 6 mg/kg, vs control or vehicle treated groups) of the same compound?
A: no significant changes in HO-1 expression

Q: What about the “relative mRNA levels of NLRP3 and IL-18 in TA muscle” value [1, 9] of the same compound?
A: significantly reduced

Q: What about the “relative transcript levels of IFNγ and MIP-2 in TA muscle” value [1, 9] of the same compound?
A: significantly reduced

Q: And the “relative transcript levels of TNFα and IL-6 in TA muscle” value ([1]; 6 mg/kg, vs vehicle treated group (p=0.09 and <0.0001))?
A: increased

Q: What about the “relative transcript levels of TNFα, IFNγ, IL-6, IL-8 in tumor” value [2, 8] of the same compound?
A: significantly reduced

Q: What about the “relative transcript levels of HO-1 in tumor” value ([2]; 2 mg/kg, vs vehicle treated group (p=0.06)) of the same compound?
A: trended towards an increase

Q: And the “relative gene expression of IL-18 in tumor” value ([2]; 2 mg/kg, vs vehicle treated group (p=0.07))?
A: trend towards reduction

Q: And the “relative mRNA expression of TNFα in tumor” value [2, 9]?
A: significantly reduced

Q: And the “relative transcript levels of HO-1 in tumor” value ([2]; 6 mg/kg, vs vehicle treated group (p=0.03))?
A: significantly increased

Q: And the “relative expression of IL-6 and IL-8 genes in tumor” value ([2]; 6 mg/kg, vs vehicle treated group (p=0.07, p=0.09))?
A: trend towards reduction

Q: What about the “relative gene expression of IL-18 in tumor” value ([2]; 6 mg/kg, vs vehicle treated group (p=0.21)) of the same compound?
A: did not approach the level of statistical significance

Q: What about the “reduction in NLRP3 mRNA levels in tumor” value [2, 10] of the same compound?
A: not found to be significant

Q: What about the “relative transcript levels of CASP1 in tumor” value [2, 10] of the same compound?
A: dose-dependent decrease

Q: What about the “relative transcript levels of IL-1β in tumor” value [2, 10] of the same compound?
A: significantly reduced in both WFA treated groups

Q: And the “Gonadal Fat: Absent (mice scored/group)” value ([3]; WFA 2 mg/kg)?
A: 0

Q: What about the “Gonadal Fat: Abundant (mice scored/group)” value ([3]; WFA 2 mg/kg) of the same compound?
A: 0

Q: What about the “Gonadal Fat: Present (mice scored/group)” value ([3]; WFA 2 mg/kg) of the same compound?
A: 4/5

Q: And the “Gonadal Fat: Small Amount (mice scored/group)” value ([3]; WFA 2 mg/kg)?
A: 1/5

Q: And the “Gonadal Fat: Absent (mice scored/group)” value ([3]; WFA 6 mg/kg)?
A: 0

Q: What about the “Gonadal Fat: Abundant (mice scored/group)” value ([3]; WFA 6 mg/kg) of the same compound?
A: 0

Q: What about the “Gonadal Fat: Present (mice scored/group)” value ([3]; WFA 6 mg/kg) of the same compound?
A: 1/4

Q: And the “Gonadal Fat: Small Amount (mice scored/group)” value ([3]; WFA 6 mg/kg)?
A: 3/4

Q: What about the “body weight fold change” value ([4]; 2 and 6 mg/kg, at termination of study, all groups compared) of the same compound?
A: No statistically significant difference between the groups

Q: What about the “BW Week 2” value [4, 11] of the same compound?
A: 20.43 ± 2.43 g

Q: What about the “BW Week 3” value [4, 11] of the same compound?
A: 22.68 ± 2.53 g

Q: What about the “BW Week 1” value ([4]; WFA 2 mg/kg group) of the same compound?
A: 19.98 ± 2.33 g

Q: And the “Initial BW” value ([4]; WFA 2 mg/kg group)?
A: 19.14 ± 1.50 g

Q: What about the Kidney weight normalized ([4]; WFA 2 mg/kg) of the same compound?
A: 4.95 ± 0.79 mg/g

Q: What about the Liver weight normalized ([4]; WFA 2 mg/kg) of the same compound?
A: 47.16 ± 15.88 mg/g

Q: What about the Spleen weight normalized ([4]; WFA 2 mg/kg) of the same compound?
A: 2.20 ± 1.74 mg/g

Q: And the “BW Week 2” value [4, 12]?
A: 21.37 ± 1.32 g

Q: And the “BW Week 3” value [4, 12]?
A: 23.57 ± 1.23 g

Q: And the “BW Week 1” value ([4]; WFA 6 mg/kg group)?
A: 20.70 ± 1.35 g

Q: What about the “Initial BW” value ([4]; WFA 6 mg/kg group) of the same compound?
A: 19.60 ± 0.76 g

Q: What about the Kidney weight normalized ([4]; WFA 6 mg/kg) of the same compound?
A: 5.45 ± 0.49 mg/g

Q: And the Liver weight normalized ([4]; WFA 6 mg/kg)?
A: 41.18 ± 3.60 mg/g

Q: And the Spleen weight normalized ([4]; WFA 6 mg/kg)?
A: 2.78 ± 1.45 mg/g

Q: What about the “forelimb and total grip strengths” value ([5]; tumor-bearing mice, 2 and 4 mg/kg, vs tumor-bearing vehicle) of the same compound?
A: significantly increased compared to the tumor-bearing vehicle-treated

Q: And the total grip strength ([5]; tumor-free mice, 4 mg/kg, vs tumor-free vehicle)?
A: significantly improved the total grip strength of the tumor-free mice

Q: And the forelimb grip strength ([5]; tumor-free mice, 2 and 4 mg/kg, vs tumor-free vehicle)?
A: significantly improved the forelimb grip strength of tumor-free mice

Q: What about the “isovolumetric relaxation time (IVRT)” value ([6]; WFA vs vehicle within tumor-free or tumor-bearing groups) of the same compound?
A: no significant differences within the tumor-free or tumor-bearing groups

Q: And the “cardiac output (CO)” value ([6]; tumor-bearing mice, WFA treatment)?
A: similarly normalized

Q: What about the LV mass [6, 13] of the same compound?
A: significant increase in LV mass

Q: And the “diastolic dysfunction (E/A ratio, E/e′ ratio)” value [6, 13]?
A: partially improved

Q: What about the “fractional shortening (FS)” value ([6]; tumor-bearing, WFA 2 mg/kg) of the same compound?
A: 57.8±3.6%

Q: What about the “fractional shortening (FS)” value ([6]; tumor-bearing, WFA 4 mg/kg) of the same compound?
A: 55.3±3.2%

Q: What about the diastolic function ([6]; tumor-free animals) of the same compound?
A: did not affect diastolic function in tumor-free animals

Q: And the “HR and CO” value ([6]; tumor-free mice, WFA treatment)?
A: did not have any effect on HR or CO in tumor-free mice

Q: And the heart rate ([6]; tumor-free or tumor-bearing WFA-treated groups vs tumor-free vehicle)?
A: No significant differences in heart rate

Q: What about the LV mass ([6]; tumor-free, vehicle vs either dose of WFA) of the same compound?
A: No significant difference in LV mass

Q: What about the “toxicity of high dose” value [7] of the same compound?
A: turned out to be toxic
